In ChEMBL document CHEMBL1122060, “Synthesis and some pharmacological properties of Z-Tyr(SO3H)-Met-Gly-Trp-Met-Asp(Phe-NH2)-OH, a 32-beta-aspartyl analogue of cholecystokinin (pancreozymin) 27-33” (1982):
*1 amine or outer side, *2 acyl side, *3 side chain or, on linkers, in order; H or OH if unused. Where a SMILES comes first, the peptide text is derived from it. [ ]: non-standard residue; d: D form. βAsp = O=C(O)[C@H](CC(=O)[*:2])N[*:1]

Assays:
Assay type in all cases: functional
[1] = species on record: Felis catus; assay: Pancreatic response measured as optical density of the pancreatic juice secreted 30 minutes following injection of 0.5 ug and diluted to 25 mL with physiological saline.
[2] = species on record: Felis catus; assay: Pancreatic response measured as optical density of the pancreatic juice secreted 30 minutes following injection of 2 ug and diluted to 25 mL with physiological saline.
[3] = species on record: Felis catus; assay: Pancreatic response measured as optical density of the pancreatic juice secreted 30 minutes following injection of 1 ug and diluted to 25 mL with physiological saline.

For `CSCC[C@H](NC(=O)[C@H](Cc1c[nH]c2ccccc12)NC(=O)CNC(=O)[C@H](CCSC)NC(=O)[C@@H](N)Cc1ccc(O)cc1)C(=O)N[C@@H](CC(=O)N[C@@H](Cc1ccccc1)C(N)=O)C(=O)O` (H-YMGWM[βAsp]F-NH2), the Pancreatic response [1] was 0.46, the Pancreatic response [2] was 1.47 and the Pancreatic response [3] was 0.97.
